From patent US11879012B2, “Method of modulating cell proliferation” (METRO NORTH HOSPITAL AND HEALTH SERVICE, priority 2018, dated 2024)

Legend:
[1] = system: microvascular endothelial cells (MEC); test: MTT assay, metabolic response of microvascular endothelial cells; assay type: cell-based
Description: (§1) Measurement of mitochondrial enzyme activity by MTT conversion was utilised as an indirect assessment of metabolic and proliferative activity. MTT reagent was prepared by diluting the MTT stock solution (5 mg/mL) 1:10 in PBS (i.e., to a final concentration of 0.5 mg/mL MTT). Prior optimization of growth conditions (seeding density and duration in culture) was conducted to ensure sub-confluency at the time of measurement. For example, a seeding density of 10,000 cells per cm^2 and a culture period of 48-hours were routinely used. On the day of analysis, the culture medium was removed from each well and replaced with a fixed volume (0.5 mL per well of a 24 well plate) of MTT solution and incubated at 37° C. for 40 minutes. The MTT reagent was subsequently removed and the formazan product eluted by adding a fixed volume (300 μL per well of a 24 well plate) of acidified isopropanol (24.6 μL of concentrated HCL in 20 mL of isopropanol) to each well for approximately 5 minutes, 150 μL of the eluted stain from each well was then transferred into corresponding wells of a 96 well plate. The optical density was measured using a plate reader at 550 nm (background 620 nm). Microvascular endothelial cells (MEC) were cultured in MEC Culture Medium comprising 500 mL of MCDB-131 media containing 5 mL of 1M L-Glutamine, 5 Penicillin (10,000 IU/mL)/Streptomycin (10,000 ug/mL), 10% v/v foetal calf serum (FCS), 0.5 mL of 1 mg/mL hydrocortisone (Hc) and 0.5 mL of 10 ug/mL epidermal growth factor (EGF). Spent culture media was removed and the flask rinsed with 5 mL of phosphate buffered saline (without magnesium or calcium; PBSA). After 30 seconds, the PBSA was removed and 5 mL of 0.02% EDTA/0.05% trypsin reagent was added to the cells. The flask was then incubated at 37° C. for 5-8 minutes. The cells were then dislodged from the flask, removed and added to a 50 mL centrifuge tube containing an equal volume of culture media to neutralize the 0.02% EDTA/0.05% trypsin reagent. This tube was then centrifuged at 100 g for 5 minutes to form a pellet of cells. The supernatant was removed and the pellet of cells resuspended. The diluted cells were split 1:3 into new flasks containing culture media. The flasks were then placed in a humidified CO2 (5%) incubator at 37° C. until the cells were approximately 80% confluent. The process was repeated weekly. For the purpose of serum-free culturing, the MEC and LEC cells were serum starved by incubating them in serum-free MCDB-131 medium (Gibco/Life Technologies) for 12 hours. Limbal epithelial cells (LEC) were cultured in a similar manner to MEC in LEC Culture Medium comprising 500 mL of DMEM/F12 media containing 5 mL of 1M L-Glutamine, 5 mL of Pen (10,000 IU/mL)/Strep (10,000 ug/mL) and 10% FCS (v/v). Additional reagents used in these experiments are described below: • 0.02% EDTA/0.05% trypsin reagent: 5 mL of 2% EDTA solution and 10 mL of thawed 2.5% trypsin solution were added to 485 mL of PBSA, 50 mL aliquots were dispensed into 50 mL centrifuge tubes and stored below −20° C. • Pre-bound Collagen IV: 250 μL of Collagen IV stock solution was added to the wells of a 24 well tissue culture plate and allowed to dry completely over night in a biohazard cabinet. • Pre-bound Vitronectin: a vitronectin stock solution (2 mg/mL) was diluted in water to a final concentration of 5 μg/mL. […]

[2] = system: limbal epithelial cells (LEC); test: MTT assay, metabolic response of limbal epithelial cells; assay type: cell-based; details: FIG. 8
Description: as §1, with “nm).” for “nm). Microvascular endothelial cells (MEC) were cultured in MEC Culture Medium comprising 500 mL of MCDB-131 media containing 5 mL of 1M L-Glutamine, 5 Penicillin (10,000 IU/mL)/Streptomycin (10,000 ug/mL), 10% v/v foetal calf serum (FCS), 0.5 mL of 1 mg/mL hydrocortisone (Hc) and 0.5 mL of 10 ug/mL epidermal growth factor (EGF).”, “(v/v).” for “(v/v). Additional reagents used in these experiments are described below: • 0.02% EDTA/0.05% trypsin reagent: 5 mL of 2% EDTA solution and 10 mL of thawed 2.5% trypsin solution were added to 485 mL of PBSA, 50 mL aliquots were dispensed into 50 mL centrifuge tubes and stored below −20° C. • Pre-bound Collagen IV: 250 μL of Collagen IV stock solution was added to the wells of a 24 well tissue culture plate and allowed to dry completely over night in a biohazard cabinet. • Pre-bound Vitronectin: a vitronectin stock solution (2 mg/mL) was diluted in water to a final concentration of 5 μg/mL.”

[3] = agent alone, serum-starved cells, 2 days, glucose 10 mg/mL, thrombin 100 IU/mL
[4] = agent alone, serum-starved cells, 2 days, glucose 10 mg/mL, thrombin 100 IU/mL, FIG. 7

Molecule: anti-thrombin III
- proliferation of MEC ([1]; ATIII 10 IU/mL in the presence of thrombin (+glucose) and pre-bound PSGL-1, FIG. 9): stimulated the proliferation of MEC

Molecule: thrombin
- proliferation of LEC [2, 3]: did not significantly stimulate proliferation
- proliferation of LEC ([2]; glucose with thrombin): did not significantly stimulate proliferation
- proliferation of MEC ([1]; 100 IU/mL thrombin with glucose, FIG. 7): stimulated proliferation of MEC in synergy with glucose, exceeding the positive control
- proliferation of MEC [1, 4]: did not significantly stimulate proliferation of endothelium

B1: P-selectin: pre-bound recombinant human P-selectin (protein, UniProt P16109 42-830, looked up)
P-selectin: WTYHYSTKAYSWNISRKYCQNRYTDLVAIQNKNEIDYLNKVLPYYSSYYWIGIRKNNKTWTWVGTKKALTNEAENWADNEPNNKRNNEDCVEIYIKSPSAPGKWNDEHCLKKKHALCYTASCQDMSCSKQGECLETIGNYTCSCYPGFYGPECEYVRECGELELPQHVLMNCSHPLGNFSFNSQCSFHCTDGYQVNGPSKLECLASGIWTNKPPQCLAAQCPPLKIPERGNMTCLHSAKAFQHQSSCSFSCEEGFALVGPEVVQCTASGVWTAPAPVCKAVQCQHLEAPSEGTMDCVHPLTAFAYGSSCKFECQPGYRVRGLDMLRCIDSGHWSAPLPTCEAISCEPLESPVHGSMDCSPSLRAFQYDTNCSFRCAEGFMLRGADIVRCDNLGQWTAPAPVCQALQCQDLPVPNEARVNCSHPFGAFRYQSVCSFTCNEGLLLVGASVLQCLATGNWNSVPPECQAIPCTPLLSPQNGTMTCVQPLGSSSYKSTCQFICDEGYSLSGPERLDCTRSGRWTDSPPMCEAIKCPELFAPEQGSLDCSDTRGEFNVGSTCHFSCDNGFKLEGPNNVECTTSGRWSATPPTCKGIASLPTPGVQCPALTTPGQGTMYCRHHPGTFGFNTTCYFGCNAGFTLIGDSTLSCRPSGQWTAVTPACRAVKCSELHVNKPIAMNCSNLWGNFSYGSICSFHCLEGQLLNGSAQTACQENGHWSTTVPTCQAGPLTIQEALTYFGGAVASTIGLIMGGTLLALLRKRFRQKDDGKCPLNPHSHLGTYGVFTNAAFDPSP
- thrombin-induced proliferation of MEC ([1]; pre-bound, in the presence of glucose, absence of collagen IV and vitronectin, FIG. 7): reduced the thrombin-induced proliferation of MEC

B2: PSGL-1: pre-bound selectin receptor, P-selectin glycoprotein ligand-1 (protein, UniProt Q14242 42-412, looked up)
P-selectin glycoprotein …: QATEYEYLDYDFLPETEPPEMLRNSTDTTPLTGPGTPESTTVEPAARRSTGLDAGGAVTELTTELANMGNLSTDSAAMEIQTTQPAATEAQTTQPVPTEAQTTPLAATEAQTTRLTATEAQTTPLAATEAQTTPPAATEAQTTQPTGLEAQTTAPAAMEAQTTAPAAMEAQTTPPAAMEAQTTQTTAMEAQTTAPEATEAQTTQPTATEAQTTPLAAMEALSTEPSATEALSMEPTTKRGLFIPFSVSSVTHKGIPMAASNLSVNYPVGAPDHISVKQCLLAILILALVATIFFVCTVVLAVRLSRKGHMYPVRNYSPTEMVCISSLLPDGGEGPSATANGGLSKAKSPGLTPEPREDREGDDLTLHSFLP
- thrombin induced proliferation of LEC ([2]; pre-bound, in the presence of glucose): stimulated thrombin induced proliferation of LEC

B3: vitronectin: pre-bound basement membrane protein (protein, UniProt P04004 20-478, looked up)
Vitronectin: DQESCKGRCTEGFNVDKKCQCDELCSYYQSCCTDYTAECKPQVTRGDVFTMPEDEYTVYDDGEEKNNATVHEQVGGPSLTSDLQAQSKGNPEQTPVLKPEEEAPAPEVGASKPEGIDSRPETLHPGRPQPPAEEELCSGKPFDAFTDLKNGSLFAFRGQYCYELDEKAVRPGYPKLIRDVWGIEGPIDAAFTRINCQGKTYLFKGSQYWRFEDGVLDPDYPRNISDGFDGIPDNVDAALALPAHSYSGRERVYFFKGKQYWEYQFQHQPSQEECEGSSLSAVFEHFAMMQRDSWEDIFELLFWGRTSAGTRQPQFISRDWHGVPGQVDAAMAGRIYISGMAPRPSLAKKQRFRHRNRKGYRSQRGHSRGRNQNSRRPSRATWLSLFSSEESNLGANNYDDYRMDWLVPATCEPIQSVFFFSGDKYYRVNLRTRRVDTVDPPYPRSIAQYWLGCPAPGHL
- proliferation of LEC [2, 3]: did not significantly stimulate proliferation
- proliferation of MEC [1, 4]: did not significantly stimulate proliferation of endothelium
